Data on 38 compounds can be found in US7667052B2 (Eisai R&D Management Co., Ltd., priority 2003, dated 2010).

Read-outs that look alike come from different tables or passages of the source.

The subject of data set [1] is transcription from VEGF promoter. Briefly: VEGF transcription-suppressing activity, VEGF-PLAP reporter in U251/1-8 cell. Conditions: Homo sapiens, U-251, U251/1-8 cell, PLAP activity, low oxygen 18 hours. Type of data set: cell-based. A digest of the protocol:
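U251 glioma clone stably carrying a ~2.3 kb human VEGF promoter–secreted PLAP reporter, 4×10^4 cells/well, exposed to 3-fold dilutions of compound for 18 h under low oxygen. Supernatant PLAP read by chemiluminescence at pH 10.0; IC50 = 50% suppression, normoxia 0%, hypoxia 100%.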

Data set [2] is described as follows: Solubility (physico-chemical properties of the 11107 analogues). Conditions: in dimethylsulfoxide, pyridine, methanol, acetone and water.
Where [3] appears, read: read-out: IC50 values of VEGF transcription-suppressing activity (range given).
Where [4] appears, read: read-out: VEGF transcription suppressing activity (IC50: nM).

What is called IC50 is the midpoint of a concentration-inhibition curve. In the case of `CCC(O)C(C)C1OC1CC(C)/C=C/C=C(\C)C1OC(=O)CC(O)/C=C/C2(CO2)C(OC(C)=O)/C=C/C1C` (stereo not shown) [11107AN], the half-inhibitory concentration (IC50) in data set [1] (setting [3]) was in the range of 1 to 100 nM. Also, in data set [2], the Solubility entry is “soluble in dimethylsulfoxide, pyridine, methanol and acetone, and slightly soluble in water”.
For the compound `CCC(O)CC1OC1CC(C)/C=C/C=C(\C)C1OC(=O)CC(O)CCC(C)(O)C(OC(C)=O)/C=C/C1C` (stereo not shown) [11107T], in data set [1] (setting [3]), the IC50 lay in the range of 1 to 100 nM. Moreover, in data set [2], the Solubility entry was “soluble in dimethylsulfoxide, pyridine, methanol and acetone, and slightly soluble in water”.
In the case of `CC(=O)OC1/C=C/C(C)C(/C(C)=C/C=C/C(C)CC(O)/C=C(\C)C(=O)C(C)O)OC(=O)CC(O)CCC1(C)O` (stereo not shown) [11107Q], in data set [1] (setting [3]), the half-inhibitory concentration (IC50) was in the range of 1 to 100 nM. Besides, in data set [2], the Solubility entry was “soluble in dimethylsulfoxide, pyridine, methanol and acetone, and slightly soluble in water”.
`CCC(O)C(C)C1OC1CC(C)/C=C/C=C(\C)C1C/C=C/C(OC(C)=O)C(C)(O)CCC(O)CC(=O)O1` (stereo not shown) [11107Z]: the IC50 in data set [1] (setting [3]) lay within 1 to 100 nM. Moreover, the Solubility entry in data set [2] was “soluble in dimethylsulfoxide, pyridine, methanol and acetone, and slightly soluble in water”.
Regarding `CCC(O)C(C)C1OC1CC(C)/C=C/C=C(\C)C1OC(=O)CC(O)/C=C/C(C)(OC(C)=O)C(OC(C)=O)/C=C/C1C` (stereo not shown) [11107AP], the IC50 in data set [1] (setting [3]) was 1 to 100 nM. Also, the Solubility result in data set [2] is “soluble in dimethylsulfoxide, pyridine, methanol and acetone, and slightly soluble in water”.
Turning to `CCC(O)C(C)C1OC1CC(C)/C=C/C=C(\C)C1OC(=O)CC(O)CCC(O)(COC(C)=O)C(O)/C=C/C1C` (stereo not shown) [11107AB], in data set [1] (setting [3]), the IC50 is 1 to 100 nM. Moreover, the Solubility result in data set [2] is “soluble in dimethylsulfoxide, pyridine, methanol and acetone, and slightly soluble in water”.
`CCC(O)C(C)C(O)C(O)CC(C)/C=C/C=C(\C)C1OC(=O)CC(O)CCC(C)(O)C(OC(C)=O)/C=C/C1C` (stereo not shown) [11107O]: in data set [2], the Solubility entry is “soluble in dimethylsulfoxide, pyridine, methanol and acetone, and slightly soluble in water”.
Take `CCC(O)C(C)C1OC1CC/C=C/C=C(\C)C1OC(=O)CC(O)CCC(C)(O)C(OC(C)=O)/C=C/C1C` (stereo not shown) [11107U]: the IC50 in data set [1] (setting [3]) was 1 to 100 nM. For the same compound, the Solubility entry in data set [2] was “soluble in dimethylsulfoxide, pyridine, methanol and acetone, and slightly soluble in water”.
For the compound `CCC(O)C(C)C1OC1CC(C)/C=C/C=C(\C)C1OC(=O)CC(O)CC(O)C(C)(O)C(OC(C)=O)/C=C/C1C` (stereo not shown) [11107K], the IC50 in data set [1] (setting [3]) is 1 to 100 nM; in data set [1] (setting [4]) it was 2.7 nM. For the same compound, the Solubility result in data set [2] is “soluble in dimethylsulfoxide, pyridine, methanol and acetone, and slightly soluble in water”.
For `CCC(O)C(C)C1OC1CC(C)/C=C/C=C(\C)C1OC(=O)C(C)C(O)CCC(C)(O)C(OC(C)=O)/C=C/C1C` (stereo not shown) [11107X], the Solubility entry in data set [2] is “soluble in dimethylsulfoxide, pyridine, methanol and acetone, and slightly soluble in water”.
Regarding `CCC(O)C(C)C1OC1CC(C)/C=C/C=C(\C)C1OC(=O)CC(O)CCC2(CO2)C(OC(C)=O)/C=C/C1C` (stereo not shown) [11107AM], the half-inhibitory concentration (IC50) in data set [1] (setting [3]) was 1 to 100 nM; in data set [1] (setting [4]), 2.6 nM. In data set [2], the Solubility entry is “soluble in dimethylsulfoxide, pyridine, methanol and acetone, and slightly soluble in water”.
For `CC(=O)OC1/C=C/C(C)C(/C=C/C(C)C/C=C/C(C)O)OC(=O)CC(O)CCC1(C)O` (stereo not shown) [11107BE], the Solubility entry in data set [2] is “soluble in dimethylsulfoxide, pyridine, methanol and acetone, and slightly soluble in water”.
Same read-out and setting: to `CC(=O)OC1/C=C/C(C)C(/C(C)=C/C=C/C(C)O)OC(=O)CC(O)CCC1C` (stereo not shown) [11107AR] belongs “soluble in dimethylsulfoxide, pyridine, methanol and acetone, and slightly soluble in water”; to `CCC(O)C(C)C1OC1CC(C)/C=C/C=C(\C)C1OC(=O)CC(O)/C=C/C(C)(O)C(O)/C=C/C1C` (stereo not shown) [11107S], “soluble in dimethylsulfoxide, pyridine, methanol and acetone, and slightly soluble in water”.
On to `CCC(O)C(C)C1OC1C(O)C(C)/C=C/C=C(\C)C1OC(=O)CC(O)CCC(C)(O)C(OC(C)=O)/C=C/C1C` (stereo not shown) [11107BF], for which the Solubility entry in data set [2] was “soluble in dimethylsulfoxide, pyridine, methanol and acetone, and slightly soluble in water”.
Same read-out and setting: to `CCC(O)C(C)C1OC1CC(C)/C=C/C=C(\C)C1OC(=O)CC(O)CCCC(O)/C=C/C1C` (stereo not shown) [11107AK] belongs “soluble in dimethylsulfoxide, pyridine, methanol and acetone, and slightly soluble in water”.
Same read-out and setting: to `CCC(O)C(O)CC(C)/C=C/C=C(\C)C1OC(=O)CC(O)CCC(C)(O)C(OC(C)=O)/C=C/C1C` (stereo not shown) [11107AF] belongs “soluble in dimethylsulfoxide, pyridine, methanol and acetone, and slightly soluble in water”; to `CCC(=O)/C(C)=C/C(O)CC(C)/C=C/C=C(\C)C1OC(=O)CC(O)CCC(C)(O)C(OC(C)=O)/C=C/C1C` (stereo not shown) [11107AA], “soluble in dimethylsulfoxide, pyridine, methanol and acetone, and slightly soluble in water”.
The same measure, in the same setting: to `CCC1OC1CC(C)(O)/C=C/C=C(\C)C1OC(=O)CC(O)CCC(C)(O)C(OC(C)=O)/C=C/C1C` (stereo not shown) [11107BB] belongs “soluble in dimethylsulfoxide, pyridine, methanol and acetone, and slightly soluble in water”; to `CCC(O)C(C)C1OC1CC(C)/C=C/C=C(\C)C1OC(=O)C(C)C(O)CCC(C)(O)C(O)/C=C/C1C` (stereo not shown) [11107AI], “soluble in dimethylsulfoxide, pyridine, methanol and acetone, and slightly soluble in water”.
With `CCC(O)C(C)C1OC1CC(C)/C=C/C=C(\C)C1OC(=O)CC(O)CCC(C)(O)C(OC(C)=O)/C=C/C1C` (stereo not shown) [11107AD], the Solubility result in data set [2] was “soluble in dimethylsulfoxide, pyridine, methanol and acetone, and slightly soluble in water”.
With `CC(=O)OC1/C=C/C(C)C(/C(C)=C/C=C/C(C)CC(O)C2OC(C)C(O)C2C)OC(=O)CC(O)CCC1(C)O` (stereo not shown) [11107AS], the Solubility entry in data set [2] is “soluble in dimethylsulfoxide, pyridine, methanol and acetone, and slightly soluble in water”.
Same read-out and setting: to `CCC(O)C(C)/C=C/C=C(\C)C1OC(=O)CC(O)CCC(C)C(OC(C)=O)/C=C/C1C` (stereo not shown) [11107BJ] belongs “soluble in dimethylsulfoxide, pyridine, methanol and acetone, and slightly soluble in water”; to `CCC(O)C(C)(O)/C=C/CC(C)/C=C/C1OC(=O)CC(O)CCC(C)(O)C(OC(C)=O)/C=C/C1C` (stereo not shown) [11107BC], “soluble in dimethylsulfoxide, pyridine, methanol and acetone, and slightly soluble in water”; to `CCC(O)C(C)C(O)C(O)CC(C)CC/C=C(\C)C1OC(=O)CC(O)CCC(C)(O)C(OC(C)=O)/C=C/C1C` (stereo not shown) [11107AG], “soluble in dimethylsulfoxide, pyridine, methanol and acetone, and slightly soluble in water”.
As for `CCC(=O)C(C)(O)/C=C/CC(C)/C=C/C1OC(=O)CC(O)CCC(C)(O)C(OC(C)=O)/C=C/C1C` (stereo not shown) [11107AH], the Solubility result in data set [2] was “soluble in dimethylsulfoxide, pyridine, methanol and acetone, and slightly soluble in water”.
Take `CCC1OC(CC(C)/C=C/C=C(\C)C2OC(=O)CC(O)CCC(C)(O)C(OC(C)=O)/C=C/C2C)C(O)C1(C)O` (stereo not shown) [11107AU]: in data set [2], the Solubility result was “soluble in dimethylsulfoxide, pyridine, methanol and acetone, and slightly soluble in water”.
With `CCC(O)C(C)C1OC1CC(C)/C=C/C=C(\C)C1OC(=O)CC(O)CCC(C)(O)CCC(=O)C1C` (stereo not shown) [11107V], in data set [2], the Solubility entry was “soluble in dimethylsulfoxide, pyridine, methanol and acetone, and slightly soluble in water”.
As for `CCC(=O)C(C)C1OC1CC(C)/C=C/C=C(\C)C1OC(=O)CC(O)CCC(C)(O)C(O)/C=C/C1C` (stereo not shown) [11107AC], the Solubility result in data set [2] is “soluble in dimethylsulfoxide, pyridine, methanol and acetone, and slightly soluble in water”.
Take `CCC(O)C(C)C1OC1CC(C)/C=C/C=C(\C)C1OC(=O)CC(O)CCC2(CO2)C(O)/C=C/C1C` (stereo not shown) [11107AO]: in data set [2], the Solubility entry is “soluble in dimethylsulfoxide, pyridine, methanol and acetone, and slightly soluble in water”.
Still for that read-out and setting: the same measure for `CCC(O)C(C)C1OC1CC(C)/C=C/C=C/C1OC(=O)CC(O)CCC(C)(O)C(O)/C=C/C1C` (stereo not shown) [11107BD]: “soluble in dimethylsulfoxide, pyridine, methanol and acetone, and slightly soluble in water”.
As to `CCC(O)C(C)C(O)C(O)CC(C)/C=C/C=C(\C)C1OC(=O)CC(O)/C=C/C(C)(O)C(OC(C)=O)/C=C/C1C` (stereo not shown) [11107BA], in data set [2], the Solubility result is “soluble in dimethylsulfoxide, pyridine, methanol and acetone, and slightly soluble in water”.
On the same count and under the same terms, to `CCC(=O)C(C)C1OC1CC(C)(O)/C=C/C=C(\C)C1OC(=O)CC(O)CCC(C)(O)C(OC(C)=O)/C=C/C1C` (stereo not shown) [11107AV] belongs “soluble in dimethylsulfoxide, pyridine, methanol and acetone, and slightly soluble in water”.
`CCC(O)C(C)C1OC1CC(C)/C=C/C=C(\C)C1OC(=O)CC(O)CCC(C)(O)C(OC(=O)N2CCC(N3CCCCC3)CC2)/C=C/C1C` (stereo not shown) [B77]: the half-inhibitory concentration (IC50) in data set [1] (setting [3]) lay in the range of 0.5 to 100 nM.
`CCC(O)C(C)C1OC1CC(C)/C=C/C=C(\C)C1OC(=O)CC(O)CCC(C)(O)C(O)/C=C/C1C` (stereo not shown) [11107A]: the Solubility entry in data set [2] is “soluble in dimethylsulfoxide, pyridine, methanol and acetone, and slightly soluble in water”.
Regarding `CCC(OC(C)=O)C(C)C(O)C(Cl)CC(C)/C=C/C=C(\C)C1OC(=O)CC(O)CCC(C)(O)C(OC(C)=O)/C=C/C1C` (stereo not shown) [B21-2, (8E,12E,14E)-7,21-diacetoxy-18-chloro-3,6,19-trihydroxy-6,10,12,16,20-pentamethyltricosa-8,12,14-trien-11-olide], the IC50 in data set [1] (setting [3]) was 0.5 to 100 nM.
The same measure, in the same setting: the same measure for `CCC(O)C(C)C1OC1CC(C)/C=C/C=C(\C)C1OC(=O)CC(O)CCC(C)(O)C(OC(=O)NCCOC)/C=C/C1C` (stereo not shown) [B53, (8E,12E,14E)-3,6,21-Trihydroxy-7-(N-(2-methoxyethyl))carbamoyloxy-6,10,12,16,20-pentamethyl-18,19-epoxytricosa-8,12,14-trien-11-olide]: 0.5 to 100 nM; for `CCC(O)C(C)C(Br)C(O)CC(C)/C=C/C=C(\C)C1OC(=O)CC(O)CCC(C)(O)C(OC(C)=O)/C=C/C1C` (stereo not shown) [B2-2, (8E,12E,14E)-7-acetoxy-19-bromo-3,6,18,21-tetrahydroxy-6,10,12,16,20-pentamethyltricosa-8,12,14-trien-11-olide]: 0.5 to 100 nM.
